# “And” between values parts separate entries of the source, which are not always exact repeats. Equal entries are not always repeated.
# Test system: patients with prior myocardial infarction (CARE study)
# Test: CARE aligned analysis (prospective and case/control design, white males): association of genotypes with pravastatin efficacy (Tables 13, 15)
# Assay type: in vivo, human
# Description: The data presented in Table 8 based on an association of genotypes with pravastatin efficacy of the CARE samples were further analyzed and presented in Table 13. The further analysis was performed to align the data obtained from the analysis of the CARE samples, which was a prospective study, to the analysis of the WOSCOP samples, which was a case/control study. Table 13 also presents an analysis of the association of genotypes with pravastatin efficacy in the WOSCOPs samples. Relative to the analysis performed on the data presented in Table 8, there are two significant differences to determine if the SNP influenced pravastatin efficacy. Data obtained from the CARE samples were separated by study design into two groups, those in the prospective study design group and those in the case/control study design group. The original care study contained 16 protocol defined cardiovascular disease defined endpoints and 150 other phenotypes. […] The control groups used to compare the data were also divided into two groups, the “all possible” control group and the “cleaner” control group. […] Because the participants in the WOSCOPs trial were all white males, only data obtained from white males in the CARE study were analysed. Data from the “all possible” and “cleaner” controls were compared to data obtained from the cases in the prospective study design while only data from “cleaner” controls were compared to cases in the case/control study design. The data from the case/control cohorts were analysed using conditional logistic regression (as opposed to logistic regression used for the original anaylsis).
# The anaylsis was refined as described for both Tables 13 and 14.
# [1] = CD6 hCV2553030, CARE, Case/Control, F MI/SD/NF MI
# [2] = CD6 hCV2553030, CARE, Prospective, F MI/SD/NF MI
# [3] = CD6 hCV25922320, CARE, Case/Control, F MI/SD/NF MI
# [4] = CD6 hCV25922320, CARE, Case/Control, F MI/SD/NF MI, listed as Pravastatin
# [5] = CD6 hCV25922320, CARE, Prospective, F MI/SD/NF MI
# [6] = CD163 hCV25591528, CARE Case/Control, F&NF MI
# [7] = CD163 hCV25591528, CARE Prospective, F&NF MI, listed as Pravastatin
# [8] = CD163 hCV25591528, CARE, Case/Control, F MI/SD/NF MI, listed as Pravastatin
# [9] = CD163 hCV25591528, CARE, Prospective, F MI/SD/NF MI
# [10] = COL2A1 hCV3276198, CARE Case/Control, F&NF MI
# [11] = COL11A1 hCV8400671, CARE Case/Control, F&NF MI
# [12] = CR1 hCV25598594, CARE Case/Control, F&NF MI
# [13] = CR1 hCV25598594, CARE Prospective, F&NF MI
# [14] = CR1 hCV25598594, CARE, Case/Control, F MI/SD/NF MI
# [15] = CR1 hCV25598594, CARE, Prospective, F MI/SD/NF MI
# [16] = CXCL16 hCV8718197, CARE Prospective, F&NF MI
# [17] = CXCL16 hCV8718197, CARE, Case/Control, F MI/SD/NF MI
# [18] = CXCL16 hCV8718197, CARE, Prospective, F MI/SD/NF MI
# [19] = CYBA hCV2038, CARE Case/Control, F&NF MI
# [20] = ELN hCV1253630, CARE, Case/Control, F MI/SD/NF MI
# [21] = ELN hCV1253630, CARE, Prospective, F MI/SD/NF MI
# [22] = F7 hCV783138, CARE Case/Control, F&NF MI
compound,measurement,setting,value
CC[C@H](C)C(=O)O[C@H]1C[C@H](O)C=C2C=C[C@H](C)[C@H](CC[C@@H](O)C[C@@H](O)CC(=O)O)[C@H]21 [pravastatin],"Pravastatin vs placebo odds ratio, 2 rare alleles","CAPN10 hCV25614016, CARE, Prospective, F MI/SD/NF MI",0.90 and 0.78
same,OR of fatal MI/sudden death/non-fatal MI in the presence of statin treatment,"CARE, hCV2442143, 0 rare alleles",0.42
same,OR of fatal MI/sudden death/non-fatal MI in the presence of statin treatment,"CARE, hCV2442143, one rare allele, not statistically significant",0.78
same,OR of fatal MI/sudden death/non-fatal MI in the presence of statin treatment,"CARE, hCV2442143, two rare alleles, not statistically significant",1.16
same,"2 Rare Alleles n/total, Pravastatin Patients","CD6 hCV2553030, CARE Case/Control, F&NF MI",2/91 and 2/63
same,"2 Rare Alleles n/total, Pravastatin Patients","CD6 hCV2553030, CARE Prospective, F&NF MI",2/92 and 2/64
same,"Pravastatin vs placebo odds ratio, 0 rare alleles",[1],0.97 and 0.92
same,"Pravastatin vs placebo odds ratio, 1 rare allele",[1],0.80 and 0.68
same,"Pravastatin vs placebo odds ratio, 2 rare alleles",[1],0.06 and 0.04
same,"Pravastatin vs placebo odds ratio, 0 rare alleles",[2],0.97 and 0.88
same,"Pravastatin vs placebo odds ratio, 1 rare allele",[2],0.81 and 0.72
same,"Pravastatin vs placebo odds ratio, 2 rare alleles",[2],0.06 and 0.04
same,"2 rare alleles n/total (%), pravastatin patients",[3],(17.9%)
same,"Pravastatin vs placebo odds ratio, 2 rare alleles",[3],1.44
same,"Pravastatin vs placebo odds ratio, 0 rare alleles",[4],0.57 and 0.49
same,"Pravastatin vs placebo odds ratio, 1 rare allele",[4],1.39 and 1.36
same,"Pravastatin vs placebo odds ratio, 2 rare alleles",[4],1.09
same,"2 rare alleles n/total (%), pravastatin patients",[5],(17.9%)
same,"Pravastatin vs placebo odds ratio, 0 rare alleles",[5],0.58 and 0.51
same,"Pravastatin vs placebo odds ratio, 1 rare allele",[5],1.39 and 1.27
same,"Pravastatin vs placebo odds ratio, 2 rare alleles",[5],1.09 and 1.17
same,"2 Rare Alleles n/total, Pravastatin Patients",[6],4/24 and 4/21
same,"Pravastatin vs placebo odds ratio, 2 rare alleles",[6],1.23 and 0.64
same,"Pravastatin vs placebo odds ratio, 2 rare alleles","CD163 hCV25591528, CARE Prospective, F&NF MI",0.59
same,"2 Rare Alleles n/total, Pravastatin Patients",[7],4/25 and 4/21
same,"Pravastatin vs placebo odds ratio, 2 rare alleles",[7],1.14
same,"Pravastatin vs placebo odds ratio, 2 rare alleles","CD163 hCV25591528, CARE, Case/Control, F MI/SD/NF MI",0.99
same,"Pravastatin vs placebo odds ratio, 0 rare alleles",[8],0.96 and 0.88
same,"Pravastatin vs placebo odds ratio, 1 rare allele",[8],0.29 and 0.27
same,"Pravastatin vs placebo odds ratio, 2 rare alleles",[8],1.97
same,"Pravastatin vs placebo odds ratio, 0 rare alleles",[9],0.97 and 0.86
same,"Pravastatin vs placebo odds ratio, 1 rare allele",[9],0.30 and 0.28
same,"Pravastatin vs placebo odds ratio, 2 rare alleles",[9],0.88
same,"2 Rare Alleles (%), Pravastatin Patients",[10],(35.0%)
same,"2 Rare Alleles n/total, Pravastatin Patients",[10],7/20
same,"2 Rare Alleles (%), Pravastatin Patients",[11],(1.9%)
same,"2 Rare Alleles n/total, Pravastatin Patients",[11],1/52
same,"2 Rare Alleles (%), Pravastatin Patients",[12],(0.0%)
same,"2 Rare Alleles n/total, Pravastatin Patients",[12],0/0
same,"2 Rare Alleles (%), Pravastatin Patients",[13],(0.0%)
same,"2 Rare Alleles n/total, Pravastatin Patients",[13],0/0
same,"Pravastatin vs placebo odds ratio, 0 rare alleles",[14],0.86 and 0.78
same,"Pravastatin vs placebo odds ratio, 1 rare allele",[14],0.09 and 0.07
same,"Pravastatin vs placebo odds ratio, 0 rare alleles",[15],0.87 and 0.78
same,"Pravastatin vs placebo odds ratio, 1 rare allele",[15],0.08 and 0.06
same,"2 Rare Alleles n/total, Pravastatin Patients","CXCL16 hCV8718197, CARE Case/Control, F&NF MI",32/233 and 32/160
same,"2 Rare Alleles (%), Pravastatin Patients",[16],(19.8%)
same,"2 Rare Alleles n/total, Pravastatin Patients",[16],32/237 and 32/162
same,"2 rare alleles n/total (%), pravastatin patients",[17],(17.4%)
same,"Pravastatin vs placebo odds ratio, 0 rare alleles",[17],0.38
same,"Pravastatin vs placebo odds ratio, 1 rare allele",[17],0.91
same,"Pravastatin vs placebo odds ratio, 2 rare alleles",[17],1.12
same,"2 rare alleles n/total (%), pravastatin patients",[18],(17.2%)
same,"Pravastatin vs placebo odds ratio, 0 rare alleles",[18],0.38
same,"Pravastatin vs placebo odds ratio, 1 rare allele",[18],0.92
same,"Pravastatin vs placebo odds ratio, 2 rare alleles",[18],1.06
same,"2 Rare Alleles (%), Pravastatin Patients",[19],(16.9%)
same,"2 Rare Alleles n/total, Pravastatin Patients",[19],23/136
same,"2 rare alleles n/total (%), pravastatin patients",[20],(18.3%)
same,"Pravastatin vs placebo odds ratio, 0 rare alleles",[20],0.53
same,"Pravastatin vs placebo odds ratio, 1 rare allele",[20],0.70
same,"Pravastatin vs placebo odds ratio, 2 rare alleles",[20],1.64
same,"2 rare alleles n/total (%), pravastatin patients",[21],(18.2%)
same,"Pravastatin vs placebo odds ratio, 0 rare alleles",[21],0.52
same,"Pravastatin vs placebo odds ratio, 1 rare allele",[21],0.71
same,"Pravastatin vs placebo odds ratio, 2 rare alleles",[21],1.60
same,"2 Rare Alleles n/total, Pravastatin Patients","ELN hCV1253830, CARE Case/Control, F&NF MI",28/204 and 28/133
same,"2 Rare Alleles n/total, Pravastatin Patients","ELN hCV1253830, CARE Prospective, F&NF MI",28/208 and 28/136
same,"2 Rare Alleles (%), Pravastatin Patients",[22],(7.7%)
same,"2 Rare Alleles n/total, Pravastatin Patients",[22],1/13 and 1/9
same,"2 Rare Alleles (%), Pravastatin Patients","F7 hCV783138, CARE Prospective, F&NF MI",(7.7%)

# — patent publication US9932637B2, “Genetic polymorphisms associated with cardiovascular disorders and drug response, methods of detection and uses thereof” (CELERA CORPORATION, priority 2003, dated 2018)
